The values below come from patent US10550105B2 (Ribon Therapeutics Inc., priority 2018, dated 2020).

The experiment concerns CT26 colon cancer syngeneic model. Nature of the experiment: Inhibition of tumor growth by oral dosing, murine CT26 colon cancer syngeneic model. The experiment is classed as in vivo. The note with it: CT26 in BALB/c mice; BID 125-500 mg/kg or QD 500 mg/kg for 21 days; vs vehicle, P<0.0001 (FIG. 7B). From the text: Example H: Inhibition of Tumor Growth by Oral Dosing with a PARP7 Inhibitor
The effect of Compound 561 on tumor growth was studied in a human NCI-H1373 lung cancer xenograft and a murine CT26 colon cancer syngeneic model.
For the CT26 study, BALB/c mice were inoculated subcutaneously in the right flank with CT26 cells for tumor development. After 5 days of cell inoculation, mice with 36-79 mm^3 tumors were randomized into treatment groups with mean tumor volumes of 54 mm^3. The treatments were started from the next day post randomization (defined randomization day as day 0) and were treated with vehicle (25 or 50% Labrasol) or Compound 561 BID (2 times a day every 12 hours) at doses ranging from 125-500 mg/kg or QD (once a day) at 500 mg/kg for 21 days by oral gavage or needle subcutaneously. Tumor volumes were determined by manual calipers every 2-3 days. Mean tumor volume and SEM are plotted. BID: twice a day; PO: per oral administration; QD: once a day; SC: per subcutaneous administration. The first two doses for vehicle and Compound 561 500 mg/kg in the QD groups were delivered by subcutaneous injection. […] Statistical significance is calculated using two-way ANOVA followed by Bonferroni post-tests in which the treatment groups were compared to vehicle control (**** P<0.0001).

`C[C@@H](COCCC(=O)N1CCN(c2ncc(C(F)(F)F)cn2)CC1)Nc1cn[nH]c(=O)c1C(F)(F)F` [Example 561, 5-[[(2S)-1-(3-oxo-3-[4-[5-(trifluoromethyl)pyrimidin-2-yl]piperazin-1-yl]propoxy)propan-2-yl]amino]-4-(trifluoromethyl)-2,3-dihydropyridazin-3-one]: the tumor growth entry is reported as “significantly reduces tumor growth”.
